Laboratory results as given in US6903121B1, “TREATMENT OF TUMORS WITH ACETYLENES DISUBSTITUTED WITH A PHENYL OR HETEROAROMATIC GROUP AND A SUBSTITUTED CHROMANYL, THIOCHROMANYL OR TETRAHYDROQUINOLINYL GROUP IN COMBINATION WITH OTHER ANTI-TUMOR AGENTS” (Allergan, Inc., priority 2000, dated 2005).
Entries after “also recorded” stand apart in the source; their conditions may differ.

Assays:
[1] = test system: MCF-7 human breast cancer lines; settings: Toma et al. 1997; cited from earlier work
T-47D cells = experiment: Cell proliferation assay (BrdU incorporation) in T-47D breast cancer cells; type: cell-based, human
Experimental: (§1) The SK-BR-3, T47D and HL-60 cell cultures in which the assay procedures were performed are also well known and are available from sources well known in the art. Specifically, as is known, T47D is an estrogen receptor positive (ER^+) human breast cancer cell line, and SK-BR-3 is an estrogen receptor negative (ER^−) human breast cancer cell line. HL-60 is a well known human myeloid leukemia cell line. The assay procedure for the breast cancer lines itself is well known in the art and involves determining incorporation of 5-bromo-2′-deoxyuridine (BrdU) into the cells. As is known, incorporation of less BrdU represents less cell proliferation (inhibition of cell proliferation), and this assay is accepted in the art as a measure of anti-proliferative or anti-tumor activity of the assayed agent or agents. The assay procedure for the HL-60 cell line is also well-known in the art. It involves measuring the concentration of formazan dye which is cleaved from 3-[4,5-dimethylthiazole-2-yl]-2,5-diphenyltetrazolium bromide by viable HL-60 cells.
(§2) The estrogen receptor-positive (ER^+) cell line T-47D and the ER^− cell line SK-BR-3 were cultured in Dulbecco's modification of Eagle's medium (DMEM Gibco BRL, Gaithersburg, Md.) supplemented with 10% fetal bovine serum (HyClone, Logan, Utah), 2 mM L-glutamine and 1% antibiotics-antimycotics (Gibco BRL). Cell lines were obtained from the American Type Culture Collection (ATCC, Rockville, Md., HTB-133 and HTB-30 for T-47D and SK-BR-3, respectively). Cells were cultured at 37 °C in a humidified atmosphere containing 5% CO2.
(§3) Proliferation of cancer cell lines was determined using a commercial cell proliferation kit (Roche Diagnostics), essentially following the instructions of the manufacturer. Cells were seeded into 96-well tissue culture plates (Corning Incorporated, Corning, N.Y.) at a concentration of 3000 cells/well. After 24 hours, cells were treated continuously with tazarotene (Formula 3) and/or interferons (IFNs) or solvent alone. The appropriate concentrations of tazarotene (Formula 3) used in this study were between 10^−11 M and 10^−6M; IFN concentrations were between 10 and 1000 Unit/ml. Culture media were changed every 72 hours. After 7 days, 10 μl of 5-bromo-2′-deoxyuridine (BrdU) was added to each well. Incubation with BrdU was stopped 24 hours later by adding 100 μl of anti-BrdU antibody to each well. The amount of BrdU incorporated into the DNA of proliferating cells was assessed by measuring absorbance at […]. Each experiment was performed in triplicate in three independent experiments.
(§4) The growth inhibition observed for a combined treatment with tazarotene (Formula 3) and IFNs was analyzed for both synergistic and additive effects. The criteria for these effects have been discussed by three different groups (Aapro et al., Cancer Chemother. Pharmacol., 10: 161-166, 1983, Marth et al. J. Natl Cancer Inst., 77:1197-1202, 1986, Kurbacher et al., Cancer Letters, 103: 183-189, 1996). The mathematical multiplication of the two surviving fractions after the treatment of either with tazarotene (Formula 3) or with the respective interferon is the calculated value for simple additivity of both agents in combination. This calculated value is compared to the actual value observed to determine the nature of the combination effect. […] Synergism or inhibition was determined for each experiment individually, with the P value being 0.05 in comparison to the simple additivity hypothesis.

HL-60 cells = experiment: Cell proliferation assay (MTT) in HL-60 leukemia cell line; type: cell-based, human
Experimental: as §1
The human myeloid leukemia cell line HL-60 was cultured in Iscove's modified Dulbecco's medium (IMDM Gibco BRL, Gaithersburg, Md.) supplemented with 10% fetal bovine serum (HyClone, Logan, Utah), 2 mM L-glutamine and 1% antibiotics-antimycotics (Gibco BRL). HL-60 cells were obtained from the American Type Culture Collection (ATCC, Rockville, Md., CCL-240). Cells were cultured at 37° C. in a humidified atmosphere containing 5% CO2.
Proliferation of the HL-60 leukemia cell line was determined by a cell viability and non-radioactive commercial cell proliferation kit (MTT assay; Roche Diagnostics, Indianapolis, Ind.), essentially by following the instructions of the manufacturer. Cells were seeded into 96-well tissue culture plates (Corning Incorporated, Corning, N.Y.) at a concentration of 1000 cells/well. After 24 hours, the cells were treated continuously with tazarotene (Formula 3) and/or IFNs or solvent alone. […] The quantification of viable cells, capable of cleaving MTT to form a formazan dye, was assessed by measuring absorbance at 590 nm. […]
as §4, with “The criteria for these effects have been discussed by three different groups (Aapro et al., Cancer Chemother. Pharmacol., 10: 161-166, 1983, Marth et al. J. Natl Cancer Inst., 77:1197-1202, 1986, Kurbacher et al., Cancer Letters, 103: 183-189, 1996).” left out

SK-BR-3 cells = experiment: Cell proliferation assay (BrdU incorporation) in SK-BR-3 breast cancer cells; type: cell-based, human
Experimental: as §1, §2, §3, §4

[2] = test system: MCF-7 human carcinoma cell line; settings: Kurbacher et al. 1996; cited from earlier work
[3] = test system: MDA-MB 231 human carcinoma cell line; settings: Kurbacher et al. 1996; cited from earlier work
carcinoma cell lines = settings: in some of the cell lines; Fanjul et al. 1996; cited from earlier work

CC1=C(/C=C/C(C)=C/C=C/C(C)=C/C(=O)O)C(C)(C)CCC1 [all trans retinoic acid]
combination effect with other chemotherapeutic agents such as tamoxifen (TAM) [1]: synergistic effect
combination effect with α interferon (α IFN) [1]: synergistic effects

CCOC(=O)c1ccc(C#Cc2ccc3c(c2)C(C)(C)CCS3)nc1 [tazarotene, ethyl 6-[2-(4,4-dimethylthiochroman-6-yl)ethynyl]nicotinate]
anti-proliferative effect of combination with IFNα (combination effect) (T-47D cells; IFNα constant 100 U/ml, tazarotene varied, FIG. 2): synergism, although not as striking as in the assays with SK-BR-3 cells
anti-proliferative effect of combination with IFNβ (combination effect) (T-47D cells; IFNβ constant 100 U/ml, tazarotene varied, FIG. 4): synergism; also recorded: synergism, although not as striking as in the assays with SK-BR-3 cells
anti-proliferative effect of combination with IFNγ (combination effect) (T-47D cells; IFNγ constant 100 U/ml, tazarotene varied, FIG. 6): synergism, although not as striking as in the assays with SK-BR-3 cells
anti-proliferative effect of combination with IFNα (combination effect) (T-47D cells; tazarotene constant 10 nM, IFNα varied 0 to 1000 U/ml, FIG. 8): weak synergism
anti-proliferative effect of combination with IFNβ (combination effect) (T-47D cells; tazarotene constant 10 nM, IFNβ varied 0 to 1000 U/ml, FIG. 10): significant synergism
anti-proliferative effect of combination with IFNα (combination effect) (HL-60 cells; IFNα constant 100 U/ml, tazarotene varied, FIG. 13): significant synergism
anti-proliferative effect of combination with IFNβ (combination effect) (HL-60 cells; IFNβ constant 100 U/ml, tazarotene varied, FIG. 14): significant synergism
anti-proliferative effect of combination with IFNα (combination effect) (HL-60 cells; tazarotene constant 50 nM, IFNα varied 0 to 1000 U/ml, FIG. 15): significant synergism
anti-proliferative effect of combination with IFNβ (combination effect) (HL-60 cells; tazarotene constant 50 nM, IFNβ varied 0 to 1000 U/ml, FIG. 16): significant synergism
anti-proliferative effect of combination with IFNα (combination effect vs theoretically additive curve) (SK-BR-3 cells; IFNα constant 100 U/ml, tazarotene varied, FIG. 1): synergism; also recorded: synergistic effect
anti-proliferative effect of combination with IFNβ (combination effect) (SK-BR-3 cells; IFNβ constant 10 U/ml, tazarotene varied, FIG. 3): synergism; also recorded: significant synergistic effect
anti-proliferative effect of combination with IFNγ (combination effect) (SK-BR-3 cells; IFNγ constant 100 U/ml, tazarotene varied, FIG. 5): synergism; also recorded: significant synergistic effect
anti-proliferative effect of combination with IFNα (combination effect) (SK-BR-3 cells; tazarotene constant 10 nM, IFNα varied 0 to 1000 U/ml, FIG. 7): striking synergism
anti-proliferative effect of combination with IFNβ (combination effect) (SK-BR-3 cells; tazarotene constant 10 nM, IFNβ varied 0 to 1000 U/ml, FIG. 9): striking synergism
anti-proliferative effect of combination with IFNγ (combination effect) (SK-BR-3 cells; tazarotene constant 10 nM, IFNγ varied 0 to 1000 U/ml, FIG. 11): striking synergism

O=C1O[C@H]([C@@H](O)CO)C(O)=C1O [vitamin C]
combination effect with certain chemotherapeutic anti-tumor agents [2]: synergistic action
combination effect with certain chemotherapeutic anti-tumor agents [3]: synergistic action

COC(=O)c1ccc(/C(C)=C/c2ccc3c(c2)C(C)(C)CCC3(C)C)cc1 [SRI 11220]
anti-proliferative activity in combination with interferon (carcinoma cell lines): synergistic
